The values that follow come from PMC4754833, “Rilpivirine analogs potently inhibit drug-resistant HIV-1 mutants” (Retrovirology, 2016).

A value given as a limit tells only on which side of the number the result lay.

The subject of one test is HIV-1 RT mutant Y188L. Also on record: method as in PMID 23217210. Particulars: previous study; cited from earlier work.
Test [1] relates to HIV-1 RT mutant V106A/L234I. In words: single round infection assay, V106A/L234I. The format is cell-based. Particulars: V106A/L234I vs WT. The method, then:
(§1) The human osteosarcoma cell line, HOS, was obtained from Dr. Richard Schwartz (Michigan State University, East Lansing, MI) and grown in Dulbecco’s modified Eagle’s medium (Invitrogen, Carlsbad, CA) supplemented with 5 % (v/v) fetal bovine serum, 5 % newborn calf serum, and penicillin (50 units/ml) plus streptomycin (50 µg/ml; Quality Biological, Gaithersburg, MD). Virion production and single-round infectivity assays were used to determine antiviral activity (IC50 values) of the compounds as previously described.
pNLNgoMIVR-ΔEnv.LUC has been described previously. The RT open reading frame was removed from pNLNgoMIVR-ΔEnv.LUC (digestion with SpeI and SalI) and inserted between the SpeI and SalI sites of pBluescript II KS+. Using that construct as the wild-type template, we prepared the following HIV-1 RT mutants using the QuikChange II XL (Stratagene, La Jolla, CA) site-directed mutagenesis protocol kit: L100I, K103N, Y181C, Y188L, H221Y, K103N/Y181C, G190A, G190S, M230L, P236L, L100I/K103N, K103N/P225H, V106A/G190A/F227L, V106A, L234I, V106A/F227L, V106A/L234I, V106A/F227L/L234I, E40K, D67E, K101E, V111A, E138K, M184I, M184V, K101E/M184I, K101E/M184V, E138K/M184I, E138K/M184V, K101P, Y181I, and K101P/V179I. […]
(§2) 10.1186/s12977-016-0244-2 The IC50 values (nM) of RPV and the RPV analogs were determined against the NNRTI resistant mutants were measured by using a single round infection assay, n = 4. The concentrations (nM) are measured by reductions in luciferase reporter activity followed by the standard deviations. […]

In test [2] the test system is HIV-1 RT mutant V106A/F227L/L234I. In words: single round infection assay, V106A/F227L/L234I. Particulars: for IC50: ± SD, n=4; for fold-change of IC50 of the mutant relative to WT: V106A/F227L/L234I vs WT. The format is cell-based. The procedure: as §1
(§3) pNLNgoMIVR-ΔEnv.LUC has been described previously. The RT open reading frame was removed from pNLNgoMIVR-ΔEnv.LUC (digestion with SpeI and SalI) and inserted between the SpeI and SalI sites of pBluescript II KS+. Using that construct as the wild-type template, we prepared the following HIV-1 RT mutants using the QuikChange II XL (Stratagene, La Jolla, CA) site-directed mutagenesis protocol kit: L100I, K103N, Y181C, Y188L, H221Y, K103N/Y181C, G190A, G190S, M230L, P236L, L100I/K103N, K103N/P225H, V106A/G190A/F227L, V106A, L234I, V106A/F227L, V106A/L234I, V106A/F227L/L234I, E40K, D67E, K101E, V111A, E138K, M184I, M184V, K101E/M184I, K101E/M184V, E138K/M184I, E138K/M184V, K101P, Y181I, and K101P/V179I. The following sense oligonucleotides were used with matching cognate antisense oligonucleotides (not shown) (Integrated DNA Technologies, Coralville, IA) in the mutagenesis: L100I, 5′-[…]-3′; L100I 2-103, 5′-[…]-3′; K103N, 5′-[…]-3′; Y181C, 5′-[…]-3′; Y188L, 5′-[…]-3′; H221Y, 5′-[…]-3′; G190A, 5′-[…]-3′; G190S, 5′-[…]-3′; P225H, 5′-[…]-3′; F227, 5′-[…]-3′; M230L, 5′-[…]-3′; P236L, 5′-[…]-3′; V106A, 5′-[…]-3′; L234I, 5′-[…]-3′; E40K, 5′-[…]-3′; D67E, 5′-[…]-3′; K101E, 5′-[…]-3′; V111A, 5′-[…]-3′; E138K, 5′-[…]-3′; M184I, 5′-[…]-3′; M184V, 5′-[…]-3′; K101P, 5′-[…]-3′; Y181I, 5′-[…]-3′; K101P/V179I, 5′-[…]-3′. The double mutants K103N/Y181C, K103N/P225H, and L100I/K103N were made using the previously generated K103N mutant and the appropriate oligonucleotides to add the second mutation, Y181C, P225, and L100I respectively. The double mutants V106A/F227L and V106A/L234I were prepared using the previously generated V106A mutant and the appropriate oligonucleotides to add the second mutation, F227L and L234I, respectively. The double mutants K101E/M184I and K101E/M184V were constructed using the previously generated K101E mutant and the appropriate oligonucleotides to add the second mutation, M184I and M184V, respectively. The double mutants E138K/M184I and E138K/M184V were constructed using the previously generated E138K mutant and the appropriate oligonucleotides for the second mutation, M184I and M184V, respectively. The triple mutant V106A/F227L/L234I was made using the previously generated V106A/F227L double mutant and the appropriate oligonucleotides for the third mutation, L234I. The triple mutant V106A/G190A/F227L was constructed in a series of steps using the previously generated V106A mutant and the appropriate oligonucleotides for the second mutation, G190A, to generate the double mutant V106A/G190A, and then the triple mutant was made using double mutant V106A/G190A and oligonucleotides for the third mutation, F227L. The DNA sequence of each construct was verified by DNA sequence determination. The sequences encoding the mutant RTs were then subcloned into pNLNgoMIVR-ΔEnv.LUC (between the KpnI and SalI sites) to produce the mutant HIV-1 constructs. These DNA sequences were also checked independently by DNA sequence determination.
as §2

The test system of another test is HIV-1 RT mutant M184I. In words: single round infection assay, M184I. The format is cell-based. Particulars: for IC50: Human immunodeficiency virus 1, M184I, ± SD, n=4. The method, then:
as §1
as §3, with “The double mutants E138K/M184I and E138K/M184V were constructed using the previously generated E138K mutant and the appropriate oligonucleotides for the second mutation, M184I and M184V, respectively. The triple mutant V106A/F227L/L234I was made using the previously generated V106A/F227L double mutant and the appropriate oligonucleotides for the third mutation, L234I. The triple mutant V106A/G190A/F227L was constructed in a series of steps using the previously generated V106A mutant and the appropriate oligonucleotides for the second mutation, G190A, to generate the double mutant V106A/G190A, and then the triple mutant was made using double mutant V106A/G190A and oligonucleotides for the third mutation, F227L. The DNA sequence of each construct was verified by DNA sequence determination. The sequences encoding the mutant RTs were then subcloned into pNLNgoMIVR-ΔEnv.LUC (between the KpnI and SalI sites) to produce the mutant HIV-1 constructs. These DNA sequences were also checked independently by DNA sequence determination.” left out
as §2

A further test deals with HIV-1 RT mutant M184V. In words: single round infection assay, M184V. The format is cell-based. Particulars: for IC50: Human immunodeficiency virus 1, M184V, ± SD, n=4. The method, then: as §1
as §3, with “The DNA sequence of each construct was verified by DNA sequence determination. The sequences encoding the mutant RTs were then subcloned into pNLNgoMIVR-ΔEnv.LUC (between the KpnI and SalI sites) to produce the mutant HIV-1 constructs. These DNA sequences were also checked independently by DNA sequence determination.” left out
as §2

In the next test the test system is HIV-1 RT mutant V111A. In words: single round infection assay, V111A. The format is cell-based. Particulars: Human immunodeficiency virus 1, V111A; ± SD, n=4. The procedure: as §1
as §3, with “The DNA sequence of each construct was verified by DNA sequence determination. The sequences encoding the mutant RTs were then subcloned into pNLNgoMIVR-ΔEnv.LUC (between the KpnI and SalI sites) to produce the mutant HIV-1 constructs. These DNA sequences were also checked independently by DNA sequence determination.” left out
as §2

Setting [3] is: Human immunodeficiency virus 1, V106A/F227L/L234I (selected by DOR).
Setting [4] is: V106A/F227L/L234I (selected by DOR).

For the compound `Cc1cc(/C=C/C#N)cc(C)c1Nc1nc(Nc2ccc(C#N)cc2)c2nc[nH]c2n1` [compound 13], the IC50 in the test on HIV-1 RT mutant Y188L was less than 10 nM.
Regarding `CC(=O)c1ccc(Nc2nc(Nc3c(C)cc(/C=C/C#N)cc3C)nc3[nH]cnc23)cc1` [compound 14], the “fold-change of IC50 of the mutant relative to WT” value in test [1] came out at 3; in test [2], 7. Moreover, the IC50 in test [2] (setting [3]) was less than 5 nM; in test [2] (setting [4]) it was 2.7 ± 0.64 nM.
On to `COc1ccc(Nc2nc(Nc3c(C)cc(/C=C/C#N)cc3C)nc3[nH]cnc23)cc1` [compound 16], for which the IC50 in test [2] (setting [3]) is less than 5 nM; in test [2] (setting [4]) it was 3 ± 0.8 nM. Besides, the entries for the “fold-change of IC50 of the mutant relative to WT” value (in test [2]; with HIV-1 RT mutant M184I (M184I vs WT); with HIV-1 RT mutant M184V (M184V vs WT)) were 18, less than 2 and less than 2, respectively.
In the case of `Cc1cc(/C=C/C#N)cc(C)c1Nc1nc(Nc2ccc(F)cc2)c2nc[nH]c2n1` [compound 17], the “fold-change of IC50 of the mutant relative to WT” value in test [2] was determined as 6. In addition, the IC50 with HIV-1 RT mutant V111A is 0.5 ± 0.17 nM; in the test on HIV-1 RT mutant M184I it was 1.7 ± 0.3 nM; in the test with HIV-1 RT mutant M184V, 1.6 ± 0.26 nM.
For the compound `Cc1cc(/C=C/C#N)cc(C)c1Nc1nc(Nc2ccc3scnc3c2)c2nc[nH]c2n1` [compound 21], the “fold-change of IC50 of the mutant relative to WT” value in test [1] is on record as 2; in test [2] it was 10. In addition, the IC50 in test [2] (setting [3]) is less than 5 nM; in test [2] (setting [4]), 4.3 ± 0.8 nM; in the test on HIV-1 RT mutant Y188L, less than 10 nM.
For `Cc1cc(/C=C/C#N)cc(C)c1Nc1ncc2ncn(-c3ccc(C#N)cc3)c2n1` [compound 26], the “fold-change of IC50 of the mutant relative to WT” value in test [1] and in test [2] was 5 throughout. For the same compound, the IC50 in the test on HIV-1 RT mutant V111A was determined as 1.5 ± 0.8 nM; in the test with HIV-1 RT mutant M184I, 5.6 ± 2.2 nM; in the test on HIV-1 RT mutant M184V, 4.2 ± 0.99 nM.
In the case of `Cc1cc(/C=C/C#N)cc(C)c1-n1cnc2cnc(Nc3ccc(C#N)cc3)nc21` [compound 27], the “fold-change of IC50 of the mutant relative to WT” value in test [2] is given as less than 2. Further, the IC50 in the test on HIV-1 RT mutant Y188L was less than 10 nM.

In general, IC50 refers to the point on the concentration scale where inhibition reaches its midpoint.
